From PubChem BioAssay (NCI)
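All cell lines were grown in 96-well plates and treated with compound for 48 hours. The concentration for full growth arrest is given as TGI.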

What was measured:
Experiment in all cases: growth of human tumour cells (NCI), 48 h
NCI/ADR-RES ovarian = test system: NCI/ADR-RES ovarian
UO-31 renal = test system: UO-31 renal
RXF 393 renal = test system: RXF 393 renal
HOP-92 NSCLC = test system: HOP-92 NSCLC
SK-MEL-5 melanoma = test system: SK-MEL-5 melanoma
COLO 205 colon = test system: COLO 205 colon
NCI-H460 lung = test system: NCI-H460 lung
TK-10 renal = test system: TK-10 renal
SK-OV-3 ovarian = test system: SK-OV-3 ovarian
NCI-H23 lung = test system: NCI-H23 lung
CAKI-1 renal = test system: CAKI-1 renal
MCF7 breast = test system: MCF7 breast
LOX IMVI melanoma = test system: LOX IMVI melanoma
IGROV1 ovarian = test system: IGROV1 ovarian
SNB-75 CNS = test system: SNB-75 CNS
SF-268 CNS = test system: SF-268 CNS
U251 CNS = test system: U251 CNS
SR leukemia = test system: SR leukemia
OVCAR-4 ovarian = test system: OVCAR-4 ovarian
MDA-MB-435 = test system: MDA-MB-435
SW-620 colon = test system: SW-620 colon
KM12 colon = test system: KM12 colon
NCI-H226 lung = test system: NCI-H226 lung
SK-MEL-2 melanoma = test system: SK-MEL-2 melanoma
HT29 colon = test system: HT29 colon
A549 NSCLC = test system: A549 NSCLC
MOLT-4 leukemia = test system: MOLT-4 leukemia
OVCAR-8 ovarian = test system: OVCAR-8 ovarian
786-0 renal = test system: 786-0 renal
M14 melanoma = test system: M14 melanoma
K-562 leukemia = test system: K-562 leukemia
SF-295 CNS = test system: SF-295 CNS
OVCAR-3 ovarian = test system: OVCAR-3 ovarian
HL-60(TB) leukemia = test system: HL-60(TB) leukemia
MDA-N = test system: MDA-N
BT-549 breast = test system: BT-549 breast
UACC-62 melanoma = test system: UACC-62 melanoma
NCI-H522 lung = test system: NCI-H522 lung
PC-3 prostate = test system: PC-3 prostate
DU-145 prostate = test system: DU-145 prostate
T-47D breast = test system: T-47D breast
SN12C renal = test system: SN12C renal
CCRF-CEM leukemia = test system: CCRF-CEM leukemia
MDA-MB-231 breast = test system: MDA-MB-231 breast
SF-539 CNS = test system: SF-539 CNS
HCT-116 colon = test system: HCT-116 colon
UACC-257 melanoma = test system: UACC-257 melanoma
HCT-15 colon = test system: HCT-15 colon
SNB-19 CNS = test system: SNB-19 CNS
MALME-3M melanoma = test system: MALME-3M melanoma
HOP-62 NSCLC = test system: HOP-62 NSCLC
A498 renal = test system: A498 renal
HS 578T breast = test system: HS 578T breast
ACHN renal = test system: ACHN renal
OVCAR-5 ovarian = test system: OVCAR-5 ovarian
SK-MEL-28 melanoma = test system: SK-MEL-28 melanoma
EKVX NSCLC = test system: EKVX NSCLC
RPMI-8226 leukemia = test system: RPMI-8226 leukemia
HCC-2998 colon = test system: HCC-2998 colon

## COc1cc(S(=O)(=O)Nc2nc(-c3ccc(N4C(=O)/C(=C\c5cccs5)N=C4c4ccccc4)cc3)cs2)ccc1Cl
NCI/ADR-RES ovarian
  TGI: > 100 µM
UO-31 renal
  TGI: > 100 µM
RXF 393 renal
  TGI: > 100 µM
HOP-92 NSCLC
  TGI: 89.8 µM
SK-MEL-5 melanoma
  TGI: > 100 µM
COLO 205 colon
  TGI: > 100 µM
NCI-H460 lung
  TGI: > 100 µM
TK-10 renal
  TGI: > 100 µM
SK-OV-3 ovarian
  TGI: > 100 µM
NCI-H23 lung
  TGI: > 100 µM
CAKI-1 renal
  TGI: > 100 µM
MCF7 breast
  TGI: > 100 µM
LOX IMVI melanoma
  TGI: > 100 µM
IGROV1 ovarian
  TGI: > 100 µM
SNB-75 CNS
  TGI: > 100 µM
SF-268 CNS
  TGI: 59 µM
U251 CNS
  TGI: > 100 µM
SR leukemia
  TGI: > 100 µM
OVCAR-4 ovarian
  TGI: > 100 µM
MDA-MB-435
  TGI: > 100 µM
SW-620 colon
  TGI: > 100 µM
KM12 colon
  TGI: > 100 µM
NCI-H226 lung
  TGI: > 100 µM
SK-MEL-2 melanoma
  TGI: 64.8 µM
HT29 colon
  TGI: > 100 µM
A549 NSCLC
  TGI: > 100 µM
MOLT-4 leukemia
  TGI: > 100 µM
OVCAR-8 ovarian
  TGI: > 100 µM
786-0 renal
  TGI: > 100 µM
M14 melanoma
  TGI: > 100 µM
K-562 leukemia
  TGI: > 100 µM
SF-295 CNS
  TGI: > 100 µM
OVCAR-3 ovarian
  TGI: > 100 µM
HL-60(TB) leukemia
  TGI: > 100 µM
MDA-N
  TGI: > 100 µM
BT-549 breast
  TGI: 83.4 µM
UACC-62 melanoma
  TGI: 65.5 µM
NCI-H522 lung
  TGI: 83.8 µM
PC-3 prostate
  TGI: > 100 µM
DU-145 prostate
  TGI: > 100 µM
T-47D breast
  TGI: > 100 µM
SN12C renal
  TGI: > 100 µM
CCRF-CEM leukemia
  TGI: > 100 µM
MDA-MB-231 breast
  TGI: 56.6 µM
SF-539 CNS
  TGI: > 100 µM
HCT-116 colon
  TGI: > 100 µM
UACC-257 melanoma
  TGI: > 100 µM
HCT-15 colon
  TGI: > 100 µM
SNB-19 CNS
  TGI: > 100 µM
MALME-3M melanoma
  TGI: 55.5 µM
HOP-62 NSCLC
  TGI: > 100 µM
A498 renal
  TGI: > 100 µM
HS 578T breast
  TGI: 63.9 µM
ACHN renal
  TGI: > 100 µM
OVCAR-5 ovarian
  TGI: > 100 µM
SK-MEL-28 melanoma
  TGI: > 100 µM

## Nc1nc(Cl)c(N=Nc2ccc(Cl)cc2)c(NCC2(CO)CCC(CCc3ccccc3)C2)n1 (centres undefined)
NCI/ADR-RES ovarian
  TGI: 34.4 µM
UO-31 renal
  TGI: 4.31 µM
RXF 393 renal
  TGI: 22.2 µM
HOP-92 NSCLC
  TGI: 29.3 µM
SK-MEL-5 melanoma
  TGI: 13.6 µM
COLO 205 colon
  TGI: 19.4 µM
NCI-H460 lung
  TGI: 30.6 µM
TK-10 renal
  TGI: 27.5 µM
SK-OV-3 ovarian
  TGI: 26.1 µM
NCI-H23 lung
  TGI: 15.6 µM
CAKI-1 renal
  TGI: 13.5 µM
MCF7 breast
  TGI: 19.5 µM
EKVX NSCLC
  TGI: 28.3 µM
LOX IMVI melanoma
  TGI: 4.59 µM
IGROV1 ovarian
  TGI: 23.4 µM
SNB-75 CNS
  TGI: 28 µM
SF-268 CNS
  TGI: 33.4 µM
U251 CNS
  TGI: 31.2 µM
OVCAR-4 ovarian
  TGI: 10.6 µM
MDA-MB-435
  TGI: 23.7 µM
RPMI-8226 leukemia
  TGI: 32.9 µM
SW-620 colon
  TGI: 17 µM
KM12 colon
  TGI: 26.9 µM
NCI-H226 lung
  TGI: 19.4 µM
SK-MEL-2 melanoma
  TGI: 33.5 µM
HT29 colon
  TGI: 30.4 µM
HCC-2998 colon
  TGI: 17.3 µM
A549 NSCLC
  TGI: 51.7 µM
MOLT-4 leukemia
  TGI: 8.49 µM
OVCAR-8 ovarian
  TGI: 19.3 µM
786-0 renal
  TGI: 21.6 µM
M14 melanoma
  TGI: 31.5 µM
K-562 leukemia
  TGI: 9.78 µM
SF-295 CNS
  TGI: 25.7 µM
OVCAR-3 ovarian
  TGI: 23.6 µM
HL-60(TB) leukemia
  TGI: 20.9 µM
MDA-N
  TGI: 30.2 µM
BT-549 breast
  TGI: 23.4 µM
UACC-62 melanoma
  TGI: 22.1 µM
NCI-H522 lung
  TGI: 5.42 µM
PC-3 prostate
  TGI: 25.8 µM
DU-145 prostate
  TGI: 25.9 µM
T-47D breast
  TGI: 32.2 µM
SN12C renal
  TGI: 30.2 µM
CCRF-CEM leukemia
  TGI: 8.84 µM
MDA-MB-231 breast
  TGI: 31.2 µM
SF-539 CNS
  TGI: 34.5 µM
HCT-116 colon
  TGI: 20.2 µM
UACC-257 melanoma
  TGI: 25.1 µM
HCT-15 colon
  TGI: 24.7 µM
SNB-19 CNS
  TGI: 48.7 µM
MALME-3M melanoma
  TGI: 51 µM
HOP-62 NSCLC
  TGI: 28.1 µM
A498 renal
  TGI: 27.3 µM
HS 578T breast
  TGI: > 55.3 µM
ACHN renal
  TGI: 19.9 µM
OVCAR-5 ovarian
  TGI: 31.3 µM
SK-MEL-28 melanoma
  TGI: 35.3 µM
